# Measurements from patent US20120255051A1, “HERBICIDE TOLERANT PLANTS” (priority 2009, published 2012).
# System: Brassica plants comprising mutant AHAS alleles
# Experiment: Field trial, pre-planting treatment (0, 10, 20, 30 g a.i./ha), two locations in Canada: ERG, EST1, EST2, PPTOX, VIG1, VIG2, VIG3 scores
# Assay type: in vivo, Brassica napus
# Settings: ratio >1 = positive contribution
# Source text: Tests were set up and conducted to asses the growth and performance of plants comprising AHAS full knock-out alleles, and to further analyze the correlation between the presence of full knockout and missense AHAS genes in Brassica plants and plant growth and herbicide tolerance of the Brassica plants in the field. To this end, the Brassica plants identified in Example 1 and 2 were backcrossed two times with an elite parent line, and subsequently selfed twice to obtain homozygous plants (BC2S2). Plants were grown as row plots in a split plot design with three replicates (main plots=herbicide treatments, subplots=genotypes) at two locations in Canada. Treatment pre-planting was carried out on the soil about two days before sowing with a dose of 0 (treatment A), 10 (treatment B), 20 (treatment C) or 30 (treatment D) g a.i./ha of thiencarbazone methyl. Herbicide tolerance was measured by scoring for different parameters. The parameter emergence (ERG) was scored at the cotyledon stage on a scale 1-9, where 1 means late emergence and 9 means early emergence. Establishment was scored 14 days after sowing (EST1) and 21 days after sowing (EST2). Scores were from 1 to 9, where 1 is the worst establishment (least plants that emerged), and 9 is the best establishment (most plants emerged). Phytotoxicity (PPTOX) was determined after establishment. Plants were evaluated on a scale of 1 to 9, where 1=completely yellowing, 5=50% of plant is yellow and 9=no yellowing. The vigor scores (see above) were determined at 1-2 leaf stage (VIG1), 7 days after VIG1 (VIG2) and 14 days after VIG1 (VIG3). The average values (Av) and standard deviations (SD) of the scores for the different parameters are represented in Table 7a-g.
# Further, the contribution of the knock-out allele to herbicide tolerance conferred by the missense allele was calculated. First, the scores were corrected for a possible effect of the growth per se, independent of herbicide treatment. To this end, the scores for treatments B, C and D were divided by the scores for treatment A for the same genotype and for the same parameter (corrected herbicide tolerance scores). Next, the effect of the knock-out allele to these corrected herbicide tolerance scores obtained by the missense allele was calculated. Therefore, the corrected herbicide tolerance scores for the missense—knock-out allele combination was divided by the corrected herbicide tolerance scores for the missense allele—wild-type combination. In case the knock-out allele has no effect on herbicide tolerance conferred by the missense allele, this ratio should be 1. In case the knock-out allele positively contributes to the herbicide tolerance conferred by the missense allele, this ratio should be higher than 1. The results for the contribution of the knock-out allele to herbicide tolerance conferred by the missense allele as calculated above are shown in table 8.
# [1] = Location A, treatment B 10 g a.i./ha pre-planting
# [2] = Location A, treatment C 20 g a.i./ha pre-planting
# [3] = Location A, treatment D 30 g a.i./ha pre-planting
# [4] = Location B, treatment B 10 g a.i./ha pre-planting
# [5] = Location B, treatment C 20 g a.i./ha pre-planting
# [6] = Location B, treatment D 30 g a.i./ha pre-planting
compound,measurement,setting,value
"COC(=O)c1csc(C)c1S(=O)(=O)NC(=O)n1nc(OC)n(C)c1=O [thiencarbazone-methyl, methyl 4-[(4,5-dihydro-3-methoxy-4-methyl-5-oxo-1H-1,2,4-triazol-1-yl)carbonylsulfamoyl]-5-methylthiophene-3-carboxylate]",relative contribution of HETO112 (AHAS1 KO) to herbicide tolerance conferred by HETO111 (AHAS3 missense): VIG2,[1],1.05
same,relative contribution of HETO112 (AHAS1 KO) to herbicide tolerance conferred by HETO111 (AHAS3 missense): VIG3,[1],1.14
same,relative contribution of HETO104 (AHAS3 KO) to herbicide tolerance conferred by HETO108 (AHAS1 missense): ERG,[2],0.77
same,relative contribution of HETO104 (AHAS3 KO) to herbicide tolerance conferred by HETO108 (AHAS1 missense): EST1,[2],0.77
same,relative contribution of HETO104 (AHAS3 KO) to herbicide tolerance conferred by HETO108 (AHAS1 missense): EST2,[2],0.87
same,relative contribution of HETO104 (AHAS3 KO) to herbicide tolerance conferred by HETO108 (AHAS1 missense): PPTOX,[2],1.03
same,relative contribution of HETO104 (AHAS3 KO) to herbicide tolerance conferred by HETO108 (AHAS1 missense): VIG1,[2],0.88
same,relative contribution of HETO104 (AHAS3 KO) to herbicide tolerance conferred by HETO108 (AHAS1 missense): VIG2,[2],0.90
same,relative contribution of HETO104 (AHAS3 KO) to herbicide tolerance conferred by HETO108 (AHAS1 missense): VIG3,[2],0.91
same,relative contribution of HETO112 (AHAS1 KO) to herbicide tolerance conferred by HETO111 (AHAS3 missense): ERG,[2],1.20
same,relative contribution of HETO112 (AHAS1 KO) to herbicide tolerance conferred by HETO111 (AHAS3 missense): EST1,[2],1.19
same,relative contribution of HETO112 (AHAS1 KO) to herbicide tolerance conferred by HETO111 (AHAS3 missense): EST2,[2],1.19
same,relative contribution of HETO112 (AHAS1 KO) to herbicide tolerance conferred by HETO111 (AHAS3 missense): PPTOX,[2],1.13
same,relative contribution of HETO112 (AHAS1 KO) to herbicide tolerance conferred by HETO111 (AHAS3 missense): VIG1,[2],1.11
same,relative contribution of HETO112 (AHAS1 KO) to herbicide tolerance conferred by HETO111 (AHAS3 missense): VIG2,[2],1.00
same,relative contribution of HETO112 (AHAS1 KO) to herbicide tolerance conferred by HETO111 (AHAS3 missense): VIG3,[2],1.05
same,relative contribution of HETO104 (AHAS3 KO) to herbicide tolerance conferred by HETO108 (AHAS1 missense): ERG,[3],1.03
same,relative contribution of HETO104 (AHAS3 KO) to herbicide tolerance conferred by HETO108 (AHAS1 missense): EST1,[3],1.03
same,relative contribution of HETO104 (AHAS3 KO) to herbicide tolerance conferred by HETO108 (AHAS1 missense): EST2,[3],0.94
same,relative contribution of HETO104 (AHAS3 KO) to herbicide tolerance conferred by HETO108 (AHAS1 missense): PPTOX,[3],0.90
same,relative contribution of HETO104 (AHAS3 KO) to herbicide tolerance conferred by HETO108 (AHAS1 missense): VIG1,[3],0.94
same,relative contribution of HETO104 (AHAS3 KO) to herbicide tolerance conferred by HETO108 (AHAS1 missense): VIG2,[3],0.89
same,relative contribution of HETO104 (AHAS3 KO) to herbicide tolerance conferred by HETO108 (AHAS1 missense): VIG3,[3],0.95
same,relative contribution of HETO112 (AHAS1 KO) to herbicide tolerance conferred by HETO111 (AHAS3 missense): ERG,[3],1.28
same,relative contribution of HETO112 (AHAS1 KO) to herbicide tolerance conferred by HETO111 (AHAS3 missense): EST1,[3],1.36
same,relative contribution of HETO112 (AHAS1 KO) to herbicide tolerance conferred by HETO111 (AHAS3 missense): EST2,[3],1.18
same,relative contribution of HETO112 (AHAS1 KO) to herbicide tolerance conferred by HETO111 (AHAS3 missense): PPTOX,[3],1.23
same,relative contribution of HETO112 (AHAS1 KO) to herbicide tolerance conferred by HETO111 (AHAS3 missense): VIG1,[3],1.18
same,relative contribution of HETO112 (AHAS1 KO) to herbicide tolerance conferred by HETO111 (AHAS3 missense): VIG2,[3],1.25
same,relative contribution of HETO112 (AHAS1 KO) to herbicide tolerance conferred by HETO111 (AHAS3 missense): VIG3,[3],1.21
same,relative contribution of HETO104 (AHAS3 KO) to herbicide tolerance conferred by HETO108 (AHAS1 missense): ERG,[4],0.92
same,relative contribution of HETO104 (AHAS3 KO) to herbicide tolerance conferred by HETO108 (AHAS1 missense): EST1,[4],1.07
same,relative contribution of HETO104 (AHAS3 KO) to herbicide tolerance conferred by HETO108 (AHAS1 missense): EST2,[4],0.95
same,relative contribution of HETO104 (AHAS3 KO) to herbicide tolerance conferred by HETO108 (AHAS1 missense): PPTOX,[4],0.78
same,relative contribution of HETO104 (AHAS3 KO) to herbicide tolerance conferred by HETO108 (AHAS1 missense): VIG1,[4],0.95
same,relative contribution of HETO104 (AHAS3 KO) to herbicide tolerance conferred by HETO108 (AHAS1 missense): VIG2,[4],1.08
same,relative contribution of HETO104 (AHAS3 KO) to herbicide tolerance conferred by HETO108 (AHAS1 missense): VIG3,[4],1.19
same,relative contribution of HETO112 (AHAS1 KO) to herbicide tolerance conferred by HETO111 (AHAS3 missense): ERG,[4],0.99
same,relative contribution of HETO112 (AHAS1 KO) to herbicide tolerance conferred by HETO111 (AHAS3 missense): EST1,[4],1.00
same,relative contribution of HETO112 (AHAS1 KO) to herbicide tolerance conferred by HETO111 (AHAS3 missense): EST2,[4],1.06
same,relative contribution of HETO112 (AHAS1 KO) to herbicide tolerance conferred by HETO111 (AHAS3 missense): PPTOX,[4],0.84
same,relative contribution of HETO112 (AHAS1 KO) to herbicide tolerance conferred by HETO111 (AHAS3 missense): VIG1,[4],0.89
same,relative contribution of HETO112 (AHAS1 KO) to herbicide tolerance conferred by HETO111 (AHAS3 missense): VIG2,[4],0.95
same,relative contribution of HETO112 (AHAS1 KO) to herbicide tolerance conferred by HETO111 (AHAS3 missense): VIG3,[4],1.04
same,relative contribution of HETO104 (AHAS3 KO) to herbicide tolerance conferred by HETO108 (AHAS1 missense): ERG,[5],1.15
same,relative contribution of HETO104 (AHAS3 KO) to herbicide tolerance conferred by HETO108 (AHAS1 missense): EST1,[5],1.07
same,relative contribution of HETO104 (AHAS3 KO) to herbicide tolerance conferred by HETO108 (AHAS1 missense): EST2,[5],1.02
same,relative contribution of HETO104 (AHAS3 KO) to herbicide tolerance conferred by HETO108 (AHAS1 missense): PPTOX,[5],1.28
same,relative contribution of HETO104 (AHAS3 KO) to herbicide tolerance conferred by HETO108 (AHAS1 missense): VIG1,[5],1.22
same,relative contribution of HETO104 (AHAS3 KO) to herbicide tolerance conferred by HETO108 (AHAS1 missense): VIG2,[5],1.15
same,relative contribution of HETO104 (AHAS3 KO) to herbicide tolerance conferred by HETO108 (AHAS1 missense): VIG3,[5],1.25
same,relative contribution of HETO112 (AHAS1 KO) to herbicide tolerance conferred by HETO111 (AHAS3 missense): ERG,[5],0.92
same,relative contribution of HETO112 (AHAS1 KO) to herbicide tolerance conferred by HETO111 (AHAS3 missense): EST1,[5],1.13
same,relative contribution of HETO112 (AHAS1 KO) to herbicide tolerance conferred by HETO111 (AHAS3 missense): EST2,[5],1.07
same,relative contribution of HETO112 (AHAS1 KO) to herbicide tolerance conferred by HETO111 (AHAS3 missense): PPTOX,[5],0.88
same,relative contribution of HETO112 (AHAS1 KO) to herbicide tolerance conferred by HETO111 (AHAS3 missense): VIG1,[5],0.93
same,relative contribution of HETO112 (AHAS1 KO) to herbicide tolerance conferred by HETO111 (AHAS3 missense): VIG2,[5],0.94
same,relative contribution of HETO112 (AHAS1 KO) to herbicide tolerance conferred by HETO111 (AHAS3 missense): VIG3,[5],0.98
same,relative contribution of HETO104 (AHAS3 KO) to herbicide tolerance conferred by HETO108 (AHAS1 missense): ERG,[6],0.93
same,relative contribution of HETO104 (AHAS3 KO) to herbicide tolerance conferred by HETO108 (AHAS1 missense): EST1,[6],1.00
